In test [1] the target is T1, human TLR8 (Homo sapiens, UniProt Q9NR97).
T1 construct: expressed in transfected cells; host or cells: HEK293 (ATCC CRL-1573), pIRES vector, G-418 selected
T1 sequence (Q9NR97 27-1041): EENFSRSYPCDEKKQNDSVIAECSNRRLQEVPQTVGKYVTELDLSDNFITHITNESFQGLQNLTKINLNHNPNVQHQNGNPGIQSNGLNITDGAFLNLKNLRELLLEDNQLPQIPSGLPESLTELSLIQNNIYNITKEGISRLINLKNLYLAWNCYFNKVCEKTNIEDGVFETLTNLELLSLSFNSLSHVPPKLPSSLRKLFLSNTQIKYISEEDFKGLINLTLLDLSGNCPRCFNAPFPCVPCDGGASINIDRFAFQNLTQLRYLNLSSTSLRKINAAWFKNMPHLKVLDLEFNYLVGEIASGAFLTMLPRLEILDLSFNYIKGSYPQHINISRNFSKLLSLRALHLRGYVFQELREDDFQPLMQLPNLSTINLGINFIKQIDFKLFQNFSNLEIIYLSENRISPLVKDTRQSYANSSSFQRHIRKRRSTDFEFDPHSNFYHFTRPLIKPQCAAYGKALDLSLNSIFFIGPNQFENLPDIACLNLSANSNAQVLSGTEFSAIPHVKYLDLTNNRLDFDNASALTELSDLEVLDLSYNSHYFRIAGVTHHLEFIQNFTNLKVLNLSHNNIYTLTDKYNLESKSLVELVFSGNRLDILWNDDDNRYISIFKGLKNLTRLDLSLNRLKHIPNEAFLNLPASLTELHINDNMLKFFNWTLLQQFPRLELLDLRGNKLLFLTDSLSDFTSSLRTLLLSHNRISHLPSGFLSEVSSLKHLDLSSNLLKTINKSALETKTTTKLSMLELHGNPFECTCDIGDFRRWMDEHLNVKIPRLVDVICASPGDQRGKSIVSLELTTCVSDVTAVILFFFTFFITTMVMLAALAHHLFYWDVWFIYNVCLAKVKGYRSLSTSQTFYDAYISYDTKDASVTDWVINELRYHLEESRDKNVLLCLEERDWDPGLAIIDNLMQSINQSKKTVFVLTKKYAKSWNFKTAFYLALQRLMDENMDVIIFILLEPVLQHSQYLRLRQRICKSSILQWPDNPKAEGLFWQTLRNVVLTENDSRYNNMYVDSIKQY
The test can be described thus: NFκB-luciferase reporter assay in HEK293 cells transfected with human TLR8 (HEK293-TLR8). As to conditions: HEK293-TLR8, 10 μM IRM, 16 hours. The test is classed as cell-based. As for the experimental part: (§1) A compound was identified as increasing cellular activity mediated through a given TLR if it induced at least a two-fold increase in NFκB-induced luciferase signal compared to the control.
(§2) HEK293 medium was prepared from 90% Minimum Essential Medium (MEM) with 2 mM L-glutamine and Earle's Balanced Salt Solution (Invitrogen Corp., Rockville, Md.) adjusted to contain 1.5 g/L sodium bicarbonate, 0.1 mM non-essential amino acids, and 1.0 mM sodium pyruvate; 10% heat-inactivated fetal calf serum. HEK293 cells were cultured by incubating cells in HEK293 medium overnight at 37° C., 8% CO2.
(§3) The cells were co-transfected with (1) pIRES (BD Biosciences Clontech, Palo Alto, Calif.) either (a) unmodified (HEK293-vector), (b) containing an expressible human TLR7 gene (HEK293-TLR7), or (c) containing an expressible human TLR8 gene (HEK293-TLR8), and (2) NFκB-luc reporter (Stratagene, La Jolla, Calif.) in a 10:1 ratio with Fugene 6 transfection reagent (Roche Diagnostics Corp., Indianapolis, Ind.) following the manufacturer's instructions.
(§4) The cells were stimulated with 1 μL of IRM compounds at 1 mM in DMSO (final IRM concentration of 10 μM) or 1 μL DMSO as a control. The plates were then incubated an additional 16 hours at 37° C., 5% CO2. The luciferase signal was read using the LucLite kit (Packard Instrument Co., Meriden, Conn.). Luminescence was measured on an LMAX luminometer (Molecular Devices Corp., Sunnyvale, Calif.).

In test [2] the target is T2, TLR7 (Homo sapiens, UniProt Q9NYK1).
T2 sequence (Q9NYK1 27-1049): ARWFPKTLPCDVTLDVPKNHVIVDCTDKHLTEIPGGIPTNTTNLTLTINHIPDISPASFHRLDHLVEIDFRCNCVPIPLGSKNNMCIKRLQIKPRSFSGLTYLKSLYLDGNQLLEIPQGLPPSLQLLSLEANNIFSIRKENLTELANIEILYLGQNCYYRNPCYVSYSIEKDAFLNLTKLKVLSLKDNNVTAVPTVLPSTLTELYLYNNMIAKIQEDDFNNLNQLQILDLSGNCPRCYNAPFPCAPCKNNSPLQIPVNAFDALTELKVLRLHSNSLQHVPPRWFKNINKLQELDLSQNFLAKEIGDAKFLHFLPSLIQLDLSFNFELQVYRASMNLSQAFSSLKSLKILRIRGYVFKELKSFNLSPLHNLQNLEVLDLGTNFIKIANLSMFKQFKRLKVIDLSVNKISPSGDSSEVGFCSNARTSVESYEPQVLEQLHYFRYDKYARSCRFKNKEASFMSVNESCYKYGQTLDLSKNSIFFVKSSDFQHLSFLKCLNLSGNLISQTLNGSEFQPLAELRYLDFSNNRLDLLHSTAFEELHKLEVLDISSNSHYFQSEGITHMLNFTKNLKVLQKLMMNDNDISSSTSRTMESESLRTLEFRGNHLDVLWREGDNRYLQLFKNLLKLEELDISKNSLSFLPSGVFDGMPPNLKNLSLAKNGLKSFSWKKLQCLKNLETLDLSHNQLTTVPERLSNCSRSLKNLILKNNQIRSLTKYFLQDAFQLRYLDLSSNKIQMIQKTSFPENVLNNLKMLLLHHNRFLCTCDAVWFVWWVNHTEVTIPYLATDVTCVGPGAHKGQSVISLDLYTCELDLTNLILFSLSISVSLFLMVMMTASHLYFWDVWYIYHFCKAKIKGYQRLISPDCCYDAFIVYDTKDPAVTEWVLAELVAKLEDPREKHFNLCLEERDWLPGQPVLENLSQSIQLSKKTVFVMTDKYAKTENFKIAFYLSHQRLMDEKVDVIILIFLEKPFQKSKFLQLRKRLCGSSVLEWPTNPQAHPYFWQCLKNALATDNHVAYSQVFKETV
Nature of the test: NFκB-luciferase reporter assay in HEK293 cells transfected with human TLR7 (HEK293-TLR7). It is filed as cell-based. Set-up: expressed in transfected cells; host or cells: HEK293 (ATCC CRL-1573), pIRES vector, G-418 selected. As to conditions: HEK293-TLR7, 10 μM IRM, 16 hours. As for the experimental part:
as §1, §2, §3, §4

As to `Cc1nc2c(N)nc3ccccc3c2n1CCOCCCc1cccnc1` [IRM2, 2-methyl-1-[2-(3-pyridin-3-ylpropoxy)ethyl]-1H-imidazo[4,5-c]quinolin-4-amine], the “TLR8: fold increase of NFκB-induced luciferase signal compared to a DMSO control” value (“TLR8: fold increase” for short) in test [1] stood at 0.91 fold increase. The “TLR7: fold increase of NFκB-induced luciferase signal compared to a DMSO control” value (from here on “TLR7: fold increase”) in test [2] came out at 4.16 fold increase.

Take `Cc1nc2c(N)nc3ccccc3c2n1CCOCc1ccccc1` [IRM4, 1-[2-(benzyloxy)ethyl]-2-methyl-1H-imidazo[4,5-c]quinolin-4-amine]: the “TLR8: fold increase” value in test [1] is given as 1.06 fold increase. Moreover, the “TLR7: fold increase” value in test [2] was 4.98 fold increase.

Turning to `COCCc1nc2c(N)nc3ccccc3c2n1CCCCCCCCNC(=O)Nc1ccccc1` [IRM5, N-{8-[4-amino-2-(2-methoxyethyl)-1H-imidazo[4,5-c]quinolin-1-yl]octyl}-N′-phenylurea], the “TLR8: fold increase” value in test [1] was 0.94 fold increase. The “TLR7: fold increase” value in test [2] is on record as 3.38 fold increase.

Turning to `COCCc1nc2c(N)nc3ccccc3c2n1CCCNS(=O)(=O)c1ccc(C)cc1` [IRM7, N-{3-[4-amino-2-(2-methoxyethyl)-1H-imidazo[4,5-c]quinolin-1-yl]propyl}-4-methylbenzenesulfonamide], the “TLR8: fold increase” value in test [1] is on record as 0.86 fold increase. In addition, the “TLR7: fold increase” value in test [2] is 6.22 fold increase.

Turning to `CCCCc1nc2c(N)nc3cccnc3c2n1CCNC(=O)C(N)CC(C)C` (stereo not shown) [IRM10, N^1-[2-(4-amino-2-butyl-1H-imidazo[4,5-c][1,5]naphthyridin-1-yl)ethyl]-2-amino-4-methylpentanamide], in test [1], the “TLR8: fold increase” value was found to be 9.24 fold increase. For the same compound, the “TLR7: fold increase” value in test [2] is 0.64 fold increase.

On to `Nc1nc2ccccc2c2c1ncn2CCCCNC(=O)c1ccccc1Oc1ccccc1` [IRM11, N^1-[4-(4-amino-1H-imidazo[4,5-c]quinolin-1-yl)butyl]-2-phenoxybenzamide], for which the “TLR8: fold increase” value in test [1] is 10.69 fold increase. Further, the “TLR7: fold increase” value in test [2] worked out at 1.44 fold increase.

`CCCCc1nc2c(N)nc3ccccc3c2n1CCNS(=O)(=O)CCC` [IRM12, N^1-[2-(4-amino-2-butyl-1H-imidazo[4,5-c]quinolin-1-yl)ethyl]-1-propanesulfonamide]: in test [1], the “TLR8: fold increase” value was 8.84 fold increase. The “TLR7: fold increase” value in test [2] is listed as 1.16 fold increase.

In the case of `CCc1nc2c(N)nc3ccccc3c2n1CCOCCNC(=O)Nc1ccccc1` [IRM13, N-{2-[2-(4-amino-2-ethyl-1H-imidazo[4,5-c]quinolin-1-yl)ethoxy]ethyl}-N′-phenylurea], the “TLR8: fold increase” value in test [1] was determined as 6.25 fold increase. For the same compound, the “TLR7: fold increase” value in test [2] is 0.86 fold increase.

Take `CCOCc1nc2c(N)nc3ccccc3c2n1CCNC(=O)Nc1cccc(C#N)c1` [IRM15, N-{2-[4-amino-2-(ethoxymethyl)-1H-imidazo[4,5-c]quinolin-1-yl]ethyl}-N′-(3-cyanophenyl)urea]: the “TLR8: fold increase” value in test [1] came to 5.52 fold increase. Further, the “TLR7: fold increase” value in test [2] turned out to be 0.92 fold increase.

In the case of `COCCc1nc2c(N)nc3ccccc3c2n1CC(C)(C)O` [IRM17, 4-amino-α,α-dimethyl-2-methoxyethyl-1H-imidazo[4,5-c]quinoline-1-ethanol], the “TLR8: fold increase” value in test [1] is 10.18 fold increase. The “TLR7: fold increase” value in test [2] is reported as 2.53 fold increase.

Take `CCCCc1nc2c(N)nc(C)c(C)c2n1CC(C)(C)O` [IRM18, 4-amino-2-butyl-α,α,6,7-tetramethyl-1H-imidazo[4,5-c]pyridine-1-ethanol]: the “TLR8: fold increase” value in test [1] was found to be 2.77 fold increase. In test [2], the “TLR7: fold increase” value was 5.06 fold increase.

For the origin of these results see patent publication US20040171086A1, “Selective modulation of TLR-mediated biological activity” (3M Innovative Properties Company, priority 2003, published 2004).
